From patent US11040981B2, “Pyrrolotriazine compounds and methods of inhibiting TAM kinases” (Syros Pharmaceuticals, Inc., priority 2017, dated 2021)

Experiments:
[1] = molecular target: T1, AXL (Homo sapiens, UniProt P30530); experiment: TR-FRET kinase activity assay, AXL; assay type: biochemical; conditions: ATP at Km, 60 minutes
T1 sequence (P30530 26-894): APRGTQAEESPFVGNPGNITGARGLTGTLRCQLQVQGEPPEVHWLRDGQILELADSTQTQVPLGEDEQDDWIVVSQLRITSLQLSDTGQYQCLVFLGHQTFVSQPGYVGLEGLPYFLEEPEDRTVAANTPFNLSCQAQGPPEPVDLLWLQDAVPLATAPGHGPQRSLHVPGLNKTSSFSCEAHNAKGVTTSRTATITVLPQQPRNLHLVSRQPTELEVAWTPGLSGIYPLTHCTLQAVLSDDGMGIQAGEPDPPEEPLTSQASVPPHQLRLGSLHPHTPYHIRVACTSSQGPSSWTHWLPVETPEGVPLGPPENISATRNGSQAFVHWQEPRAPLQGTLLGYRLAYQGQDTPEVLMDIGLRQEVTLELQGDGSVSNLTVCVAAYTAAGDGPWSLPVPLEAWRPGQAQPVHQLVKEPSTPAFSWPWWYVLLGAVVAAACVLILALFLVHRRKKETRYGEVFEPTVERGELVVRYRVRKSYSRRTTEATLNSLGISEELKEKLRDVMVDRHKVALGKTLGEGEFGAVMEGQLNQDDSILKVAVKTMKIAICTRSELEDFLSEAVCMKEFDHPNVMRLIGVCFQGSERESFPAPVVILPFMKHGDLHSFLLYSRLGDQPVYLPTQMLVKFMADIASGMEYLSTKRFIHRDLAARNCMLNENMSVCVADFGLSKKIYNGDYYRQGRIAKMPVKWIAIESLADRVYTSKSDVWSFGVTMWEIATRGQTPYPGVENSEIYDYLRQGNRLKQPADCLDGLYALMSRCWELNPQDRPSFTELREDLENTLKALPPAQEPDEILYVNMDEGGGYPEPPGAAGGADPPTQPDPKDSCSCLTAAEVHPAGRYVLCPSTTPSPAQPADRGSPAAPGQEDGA
Procedure: (§1) IC50 values for compound inhibition of AXL, FLT3, MERTK and TYRO3 activity were determined by using a TR-FRET activity assay. A polypeptide substrate with a fluorescent label is phosphorylated on a tyrosine by each enzyme, where the now phosphorylated product is bound by a Europium-labeled antibody specific to that phosphorylation site. The proximity between the antibody and the substrate gives a signal known as TR-FRET. As the enzyme is inhibited by compound, less phosphorylated peptide product is made causing a decrease in overall signal.
(§2) Activity assays were performed in a 384-well, small volume, black microplates in an active enzyme volume of 10 μL and final developed volume of 20 μL. Final assay conditions are 50 mM HEPES pH 7.5, 10 mM MgCl2, 1 mM EGTA, 0.01% Brij 35 and 1 mM DTT all at RT. Enzyme, substrate labeled peptide and compound are mixed, and then the reaction is initiated with the addition of ATP at Km concentration for each enzyme. The reaction is allowed to run 60 minutes and then quenched with a 12.5 mM EDTA (ethylenediamine tetraacetic acid) solution. The plate is then developed with the addition of Europium labeled antibody for a final volume of 20 μL and is then incubated for 30 minutes in darkness. Plates are read in a Pherastar plate reader. Data is analyzed in GraphPad PRISM.
(§3) The results of these assays are shown in Table 1, below, wherein “No.” designates compound number (FIG. 1); “A” represents a value of ≤100 nM; “B” a value of >100 nM and ≤1 μM; “C” a value of >1 μM and ≤10 μM; “D” a value of >10 μM; “ND” is not determined. The ratio of Mer to FLT3 is calculated as follows: FLT3 IC50/Mer IC50. “+” represents a ratio of >2.0 and <10; “++” represents a ratio of between 10 and 100; and “+++” represents a ratio of >100.

[2] = molecular target: T2, TYRO3 (Homo sapiens, UniProt Q06418); experiment: TR-FRET kinase activity assay, TYRO3; assay type: biochemical; conditions: ATP at Km, 60 minutes
T2 sequence (Q06418 41-890): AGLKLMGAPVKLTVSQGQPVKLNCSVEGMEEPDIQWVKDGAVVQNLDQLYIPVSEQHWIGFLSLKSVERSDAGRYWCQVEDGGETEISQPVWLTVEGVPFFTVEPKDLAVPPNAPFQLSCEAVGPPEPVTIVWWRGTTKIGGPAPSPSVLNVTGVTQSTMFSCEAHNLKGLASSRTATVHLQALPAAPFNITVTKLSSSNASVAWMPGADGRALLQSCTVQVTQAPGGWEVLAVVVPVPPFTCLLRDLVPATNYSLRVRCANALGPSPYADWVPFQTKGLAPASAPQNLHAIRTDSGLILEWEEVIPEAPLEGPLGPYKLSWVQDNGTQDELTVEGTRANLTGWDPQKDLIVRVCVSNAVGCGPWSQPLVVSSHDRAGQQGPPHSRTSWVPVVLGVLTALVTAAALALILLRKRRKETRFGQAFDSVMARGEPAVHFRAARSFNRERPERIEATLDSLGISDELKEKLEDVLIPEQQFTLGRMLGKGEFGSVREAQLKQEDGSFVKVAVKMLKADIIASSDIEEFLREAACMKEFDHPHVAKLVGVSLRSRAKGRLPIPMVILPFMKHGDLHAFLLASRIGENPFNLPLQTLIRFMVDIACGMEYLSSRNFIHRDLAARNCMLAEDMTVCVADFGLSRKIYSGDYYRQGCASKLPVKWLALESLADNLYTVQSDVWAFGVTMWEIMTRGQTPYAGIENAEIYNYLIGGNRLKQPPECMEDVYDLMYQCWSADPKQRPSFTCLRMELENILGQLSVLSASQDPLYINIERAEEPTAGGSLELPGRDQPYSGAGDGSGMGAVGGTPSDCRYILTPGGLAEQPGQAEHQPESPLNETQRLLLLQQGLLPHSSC
Procedure: as §1, §2, §3

Row | SMILES | IC50 [1] [nM] | IC50 [2] [nM]
1 | COC[C@H](C)Nc1ncc2c(-c3cncc(C)c3)cc([C@H]3CC[C@H](O)CC3)n2n1 [Compound 231] | 100 to 1000 | ≤ 100
2 | COC[C@H](C)Nc1ncc2c(-c3ccc(N4CCOCC4)nc3)cc([C@H]3CC[C@H](O)CC3)n2n1 [Compound 254] | 100 to 1000 | ≤ 100
3 | COC[C@H](C)Nc1ncc2c(-c3cncc(C(=O)N4CCCC4)c3)cc([C@H]3CC[C@H](O)CC3)n2n1 [Compound 232] | 100 to 1000 | ≤ 100
4 | COC[C@H](C)Nc1ncc2c(-c3ccc(N4CCN(C)CC4)nc3)cc([C@H]3CC[C@H](O)CC3)n2n1 [Compound 271] | ≤ 100 | ≤ 100
5 | COC[C@H](C)Nc1ncc2c(-c3cnn([C@@H]4CCOC4)c3)cc([C@H]3CC[C@H](O)CC3)n2n1 [Compound 242] | ≤ 100 | ≤ 100
6 | COC[C@H](C)Nc1ncc2c(-c3cncc(C#N)c3)cc([C@H]3CC[C@H](O)CC3)n2n1 [Compound 201] | 100 to 1000 | ≤ 100
7 | COC[C@H](C)Nc1ncc2c(-c3cc(C)ccn3)cc([C@H]3CC[C@H](O)CC3)n2n1 [Compound 257] | 1000 to 10000 | 100 to 1000
8 | CNC(=O)c1ccc(-c2cc([C@H]3CC[C@H](O)CC3)n3nc(N[C@@H](C)CC(F)(F)F)ncc23)cn1 [Compound 263] | ≤ 100 | ≤ 100
9 | C[C@H](Nc1ncc2c(-c3ccc(CN4CCOCC4)cc3)cc([C@H]3CC[C@H](O)CC3)n2n1)[C@H]1CCCO1 [Compound 204] | 1000 to 10000 | 100 to 1000
10 | COC[C@H](C)Nc1ncc2c(-c3cccc(CN4CCOCC4)c3)cc([C@H]3CC[C@H](O)CC3)n2n1 [Compound 217] | 100 to 1000 | ≤ 100
11 | COCC(C)Nc1ncc2c(-c3cnn(C4COC4)c3)cc(C3CCC(O)CC3)n2n1 (stereo not drawn) [Compound 221] | ≤ 100 | ≤ 100
12 | COC[C@H](C)Nc1ncc2c(-c3cn(C)nc3C)cc([C@H]3CC[C@H](O)CC3)n2n1 [Compound 260] | 100 to 1000 | ≤ 100
13 | CC(Nc1ncc2c(-c3ccc(CN4CCOCC4)cc3)cc(C3CCC(O)CC3)n2n1)C(F)(F)F (stereo not drawn) [Compound 202] | 100 to 1000 | ≤ 100
14 | COC[C@H](C)Nc1ncc2c(-c3cncc(F)c3)cc([C@H]3CC[C@H](O)CC3)n2n1 [Compound 195] | 100 to 1000 | ≤ 100
15 | COC[C@H](C)Nc1ncc2c(-c3cnn([C@H]4CCOC4)c3)cc([C@H]3CC[C@H](O)CC3)n2n1 [Compound 243] | ≤ 100 | ≤ 100
16 | COCC(C)Nc1ncc2c(-c3ccc(-c4nnc(C)o4)cc3)cc(C3CCC(O)CC3)n2n1 (stereo not drawn) [Compound 198] | 100 to 1000 | ≤ 100
17 | CC(C)OC[C@H](C)Nc1ncc2c(-c3ccc(CN4CCOCC4)cc3)cc([C@H]3CC[C@H](O)CC3)n2n1 [Compound 214] | 100 to 1000 | ≤ 100
18 | COC[C@H](C)Nc1ncc2c(-c3ccc4c(c3)CC(=O)N4)cc([C@H]3CC[C@H](O)CC3)n2n1 [Compound 251] | 100 to 1000 | ≤ 100
